{
  "source": "paper PMC10266789",
  "about": "(The Journal of Clinical Investigation, 2023)",
  "key": {"HCMV virions": {"system": "HCMV virions", "design": "species or system human cytomegalovirus", "settings": "1 or 5 μM; 96 hours at 37°C"}, "[1]": {"assay": "Host cell cytotoxicity, HFF", "settings": "human, HFF cells"}, "[2]": {"system": "HCMV TB40/E-mCherry-UL99eGFP", "settings": "Human betaherpesvirus 5, read-out: HCMV virus yield IC50"}, "[3]": {"system": "Zika virus (strain DAK41525)", "settings": "Zika/human HFF"}, "[4]": {"assay": "Residual drug levels in MRC-5 cells and supernatant after washout, mass spectrometry", "type": "in vitro ADME, human", "description": "Supplemental Figure 8. […] (A) Uninfected cells\nAfter 24h, supernatant was collected, monolayers were washed 3x to remove drug and cells were replenished with drug-free media.\nSupernatants and cells were then assayed for residual drug levels at 2, 24 or 72h post-release. (B-C) Supernatant and cell-associated drug concentrations were determined by mass spectrometry. (D) […]\nmonolayer of MRC-5 cells. Sampling of the supernatant was conducted after a 24h incubation at 37°C, followed by 3X washes with PBS, collection of the final wash, and replenishment of drug-free medium to the dishes. Supernatant samples were then collected at 24 and 72h post drug-removal. […]\nconcentrations as determined by mass spectrometry. Mean +/- SD is shown (n=3).\n(§1) (1 picture or pasted object on this page, not shown here)"}, "[5]": {"system": "SARS-CoV-2 (strain USA-WA1/2020)", "settings": "SARS-CoV-2/human Calu3"}, "[6]": {"system": "Betacoronavirus 1 (strain OC43)", "settings": "HCoV-OC43/human MRC-5"}, "[7]": {"system": "SARS-CoV-2 (strain USA-WA1/2020)", "assay": "microbe, parasite or virus in culture", "settings": "Severe acute respiratory syndrome coronavirus 2, Calu-3, in Homo sapiens, read-out: IC50, SARS-CoV-2"}, "recombinant human SIRT2": {"target": "T1, recombinant human SIRT2 (Homo sapiens, UniProt Q8IXJ6)", "T1 sequence (Q8IXJ6 39-352 limits assumed)": "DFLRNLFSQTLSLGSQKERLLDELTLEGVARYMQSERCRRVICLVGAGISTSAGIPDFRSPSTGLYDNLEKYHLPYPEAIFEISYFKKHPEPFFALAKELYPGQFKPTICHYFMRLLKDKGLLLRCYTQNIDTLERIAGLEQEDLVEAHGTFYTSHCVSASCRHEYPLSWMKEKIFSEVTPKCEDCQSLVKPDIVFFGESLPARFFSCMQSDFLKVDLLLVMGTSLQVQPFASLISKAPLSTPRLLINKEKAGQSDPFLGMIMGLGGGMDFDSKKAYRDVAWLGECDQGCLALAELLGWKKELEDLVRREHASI", "assay": "SIRT2 thermal stability (thermal shift) assay", "type": "binding", "description": "SIRT2 underwent thermal denaturation with a midpoint transition temperature (Tm) of approximately 48°C.\nThermal melt data were collected using custom instrumentation (Fluorescence Innovations), with either 405 nm or 532 nm laser excitation and fluorescence lifetime emission to measure total well fluorescence and fluorescence lifetime as a function of temperature. Data were treated as previously described ([37]) to determine the midpoint transition temperature, Tm."}, "[8]": {"system": "Epstein-Barr virus (EBV; strain Akata)", "assay": "microbe, parasite or virus in culture", "settings": "human gammaherpesvirus 4, Akata, read-out: IC50, Epstein-Barr"}, "HCMV DNA": {"system": "HCMV DNA", "assay": "Intracellular HCMV DNA accumulation by qPCR in MRC-5", "type": "cell-based, human cytomegalovirus", "settings": "72 hours"}, "recombinant human SIRT1": {"target": "T2, recombinant human SIRT1 (Homo sapiens, UniProt Q96EB6)", "T2 construct": "purified, recombinant SIRT2^2–389, SIRT1^1–747, or SIRT3^1–400 protein (GenScript); purchased GenScript", "T2 sequence (Q96EB6 1-747)": "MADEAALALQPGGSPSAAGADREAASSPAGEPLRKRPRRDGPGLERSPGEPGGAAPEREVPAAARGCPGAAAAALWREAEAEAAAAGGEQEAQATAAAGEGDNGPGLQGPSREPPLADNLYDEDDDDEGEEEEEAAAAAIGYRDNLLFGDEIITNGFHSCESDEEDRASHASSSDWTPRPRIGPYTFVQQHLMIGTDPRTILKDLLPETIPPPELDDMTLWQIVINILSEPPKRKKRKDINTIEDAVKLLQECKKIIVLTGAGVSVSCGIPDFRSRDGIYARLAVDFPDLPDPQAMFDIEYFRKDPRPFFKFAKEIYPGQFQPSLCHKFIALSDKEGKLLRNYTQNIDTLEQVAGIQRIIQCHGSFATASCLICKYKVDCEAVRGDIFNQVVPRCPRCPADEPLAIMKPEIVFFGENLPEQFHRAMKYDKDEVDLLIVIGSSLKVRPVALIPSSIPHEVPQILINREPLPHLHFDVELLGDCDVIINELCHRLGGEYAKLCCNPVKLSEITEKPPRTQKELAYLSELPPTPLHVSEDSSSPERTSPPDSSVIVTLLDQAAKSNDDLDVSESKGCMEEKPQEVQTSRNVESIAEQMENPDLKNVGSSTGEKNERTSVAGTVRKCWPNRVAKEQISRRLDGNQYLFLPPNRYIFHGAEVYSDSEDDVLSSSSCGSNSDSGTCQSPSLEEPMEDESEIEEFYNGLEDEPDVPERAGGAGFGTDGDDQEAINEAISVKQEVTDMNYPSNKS", "assay": "SIRT deacylase assay, deacetylation of Ac-H3K9WW peptide, mass spectrometry", "type": "biochemical", "settings": "Figure 1C; n = 3"}, "[9]": {"system": "Hepatitis B virus (genotype D, subtype ayw)", "assay": "microbe, parasite or virus in culture", "settings": "Hepatocyte, read-out: IC50, Hepatitis B"}, "[10]": {"system": "c-Myc in MDA-MB-231 breast adenocarcinoma cells", "assay": "Western blot of c-Myc in MDA-MB-231 cells", "type": "cell-based, human", "settings": "72 hours", "description": "Supplemental Figure 1. […] (A) HepG2 cells were treated with FLS- […]\ndetermined by western blot. Total a-tubulin was monitored as a control. (B) MDA-MB-231 cells or (C) MRC-5 fibroblasts were treated with drug for 72h and c-Myc was monitored by western blot with b-actin as a control. Western blots are representative of three independent experiments.\nas §1"}, "[11]": {"settings": "72 hours after drug removal, treated 24 h with 5 µM"}},
  "data": [
    {"compound": "Cc1cn(-c2ccc3c(c2)CN(c2ncc(Cc4ccc(-n5cccn5)cc4)s2)CC3)c(C)n1", "note": "[FLS-359, 7-(2,4-dimethyl-1H-imidazol-1-yl)-2-(5-{[4-(1H-pyrazol-1-yl)phenyl]methyl}-1,3-thiazol-2-yl)-1,2,3,4-tetrahydroisoquinoline]", "values": [
      {"measurement": "effect of incubating virus stock with drug on infectivity", "setting": "HCMV virions", "value": "no significant effect on infectivity"},
      {"measurement": "CC50", "setting": "[1]", "value": 41.6, "unit": "µM"},
      {"measurement": "IC50", "setting": "[2]", "value": 0.56, "unit": "µM"},
      {"measurement": "SI CC50/IC50", "setting": "[3]", "value": 104.0},
      {"measurement": "removal of drug from culture dishes without cells", "setting": "[4]; 5 µM in medium, no cells", "value": "efficiently removed by washing"},
      {"measurement": "drug level in cells", "setting": "[4]; [11]", "value": "~ 5 μM"},
      {"measurement": "drug level in supernatant", "setting": "[4]; [11]", "value": "~ 0.4 μM"},
      {"measurement": "SI CC50/IC50", "setting": "[5]", "value": 52.7},
      {"measurement": "SI CC50/IC50", "setting": "[6]", "value": ">30.1"},
      {"measurement": "IC50", "setting": "[7]", "value": 0.3, "unit": "µM"},
      {"measurement": "increase of SIRT2 Tm", "setting": "recombinant human SIRT2; 6.25 μM", "value": 1.4, "unit": "°C"},
      {"measurement": "increase of SIRT2 Tm", "setting": "recombinant human SIRT2; 12.5 μM", "value": 2.0, "unit": "°C"},
      {"measurement": "IC50", "setting": "[8]", "value": 3.8, "unit": "µM"},
      {"measurement": "intracellular viral DNA accumulation", "setting": "HCMV DNA; 3 IU/cell", "value": "compromised"},
      {"measurement": "reduction in intracellular viral DNA levels", "setting": "HCMV DNA; Figure 8B", "value": "approximately 3 fold"},
      {"measurement": "IC50", "setting": "recombinant human SIRT1", "value": "> 100", "unit": "µM"},
      {"measurement": "IC50", "setting": "[9]", "value": 4.8, "unit": "µM"},
      {"measurement": "c-Myc protein level", "setting": "[10]", "value": "dramatically reduced"}
    ]}
  ]
}
